Drawing on PubChem BioAssay (NCI), this text covers TGI and GI50 for 15 compounds.

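Cells were grown in 96-well plates and exposed to each compound for 48 hours at five concentrations; endpoints were interpolated linearly between bracketing concentrations, or set to the highest concentration if not reached. At the GI50, growth is halved. The concentration for full growth arrest is given as TGI.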

Holding throughout (assay): NCI tumour cell line growth inhibition, 48 h
Assay [1] has as its system A549 NSCLC.
The subject of assay [2] is K-562 leukemia.
Assay [3] deals with KM12 colon.
For assay [4], the system named is NCI-H460 lung.
Assay [5] has as its system NCI-H522 lung.
Assay [6] deals with NCI/ADR-RES ovarian.
The subject of assay [7] is SF-539 CNS.
Assay [8] deals with U251 CNS.

Regarding `CC(=O)Nc1ccc2c(c1)C(=O)c1cccc(F)c1-2`, the TGI in assay [1] is over 100 µM; in assay [2], over 100 µM; in assay [3], over 35 µM; in assay [4], over 100 µM; in assay [5], over 100 µM; in assay [6], over 100 µM. Moreover, the TGI in assay [7] and in assay [8] was over 100 µM in each case.

`O[C@@H]1CCCN1Cc1cc2cc3c(cc2c2cc(OCc4ccccc4)ccc12)OCO3`: the GI50 is 3.69 µM in assay [1]; 2.71 µM in assay [2]; 3.2 µM in assay [3]; 2.6 µM in assay [4]; 6.08 µM in assay [5]; 6.12 µM in assay [6]. In addition, the GI50 was 3.19 µM in assay [7] and 3.58 µM in assay [8]. The TGI in assay [1] was 14.8 µM; in assay [2], 8.83 µM; in assay [3] it was 8.95 µM; in assay [4], 7.38 µM; in assay [5], 21.5 µM; in assay [6] it was 21.7 µM. Moreover, the TGI in assay [7] was found to be 10.4 µM; in assay [8], 14.8 µM.

For `CO/N=C(\COc1ccc2c(c1)oc(=O)c1cc(OC)ccc12)c1cccc(OC)c1`, the GI50 in assay [1], in assay [2], in assay [3], in assay [4], in assay [5] and in assay [6] was over 100 µM each time. The GI50 in assay [7] and in assay [8] was over 100 µM in each case. For the same compound, the TGI in assay [1], in assay [2], in assay [3], in assay [4], in assay [5] and in assay [6] was over 100 µM throughout. Moreover, the TGI in assay [7] and in assay [8] was over 100 µM each time.

In the case of `CN1C(=O)c2cc([N+](=O)[O-])ccc2[C@H]2C(=O)c3cc4c(cc3[C@H]21)OCO4`, the GI50 in assay [1] is 0.115 µM; in assay [2], 0.199 µM; in assay [3], 0.337 µM; in assay [4] it was 0.0285 µM; in assay [5], under 0.0179 µM; in assay [6], 0.0684 µM. The GI50 in assay [7] is 0.041 µM; in assay [8] it was 0.0191 µM. Further, the TGI was 1.88 µM in assay [1]; over 100 µM in assay [2]; 0.195 µM in assay [4]; 9.42 µM in assay [5]; 15.2 µM in assay [6]; 0.973 µM in assay [7]. In assay [8], this compound showed a TGI of 0.162 µM.

As to `COc1ccc2c(c1)C(=O)/C(=C/c1ccc([N+](=O)[O-])s1)O2`, the GI50 is 1.06 µM in assay [1]; 0.291 µM in assay [2]; 0.235 µM in assay [3]; 0.411 µM in assay [4]; 0.195 µM in assay [5]; 0.873 µM in assay [6]. In addition, the GI50 in assay [7] is 0.352 µM; in assay [8], 0.287 µM. The TGI is 4.07 µM in assay [1]; 12.2 µM in assay [2]; 0.51 µM in assay [3]; 1.64 µM in assay [4]; 0.395 µM in assay [5]; over 100 µM in assay [6]. For the same compound, the TGI in assay [7] amounted to 1.41 µM; in assay [8], 0.943 µM.

As to `CO/N=C(\COc1ccc2c(c1)oc(=O)c1cc(OC)ccc12)c1ccc(F)cc1`, the GI50 in assay [1] was 26.3 µM; in assay [2], 23.9 µM; in assay [3] it was 33.7 µM; in assay [4] it was 23.8 µM; in assay [5] it was 13 µM; in assay [6] it was 17.6 µM. In addition, the GI50 in assay [7] is 23.5 µM; in assay [8] it was 20.3 µM. The TGI in assay [1] is 94.8 µM; in assay [2] it was 58.7 µM; in assay [3], over 100 µM; in assay [4], over 100 µM; in assay [5], 32.5 µM; in assay [6] it was 35.6 µM. Further, the TGI in assay [7] is 63 µM; in assay [8] it was 40.4 µM.

In the case of `Cn1c(=O)c2[nH]c(C3CC(=O)CC(c4nc5c([nH]4)c(=O)n(C)c(=O)n5C)N3)nc2n(C)c1=O` (stereo not given), the TGI in assay [1], in assay [2], in assay [3], in assay [4], in assay [5] and in assay [6] was over 100 µM in each case. The TGI in assay [7] and in assay [8] was over 100 µM in each case.

As to `O=c1[nH]ccc2nc(-c3ccc(CN4CCC(c5nc(-c6ccccn6)n[nH]5)CC4)cc3)c(-c3ccccc3)cc12`, the GI50 in assay [1] was 16.2 µM; in assay [2] it was 18.9 µM; in assay [3], 14.7 µM; in assay [4], 1.15 µM; in assay [5], 22.2 µM; in assay [6], 36.7 µM. Besides, the values for the GI50 in assay [7] and in assay [8] were 4.81 µM and 13.2 µM, respectively. Further, the TGI in assay [1] is over 100 µM; in assay [2], over 100 µM; in assay [3], over 100 µM; in assay [4], over 100 µM; in assay [5], over 64.2 µM; in assay [6] it was over 100 µM. The TGI is 20.8 µM in assay [7] and over 66.6 µM in assay [8].

With `O=c1oc2ccc(F)cc2c(=O)n1-c1ccc(Cl)cc1F`, the GI50 is 2.17 µM in assay [1]; 0.509 µM in assay [2]; 2.11 µM in assay [3]; 0.619 µM in assay [4]; 0.363 µM in assay [5]; 1.18 µM in assay [6]. The GI50 in assay [7] is 0.564 µM; in assay [8], 0.868 µM. In addition, the TGI in assay [1] was over 100 µM; in assay [2] it was over 100 µM; in assay [3], 5.84 µM; in assay [4], 12.2 µM; in assay [5] it was 4.5 µM; in assay [6] it was 9.31 µM. For the same compound, the TGI is 6.79 µM in assay [7] and over 59.8 µM in assay [8].

In the case of `Cc1nc(N)sc1N=Nc1cc(Cl)c([N+](=O)[O-])cc1Cl`, the TGI is 31.5 µM in assay [1]; 30 µM in assay [2]; 37.7 µM in assay [3]; 86.7 µM in assay [4]; 35.5 µM in assay [5]; 70.4 µM in assay [6]. The TGI in assay [7] was 41.8 µM; in assay [8] it was 44.7 µM.

For `COc1cc(OC)c2cc(C(=O)O)c(=O)oc2c1`, the GI50 in assay [1] is over 100 µM; in assay [2], over 100 µM; in assay [3], over 100 µM; in assay [4], over 100 µM; in assay [5], over 71.5 µM; in assay [6], over 100 µM. In addition, the GI50 in assay [7] was over 96.2 µM; in assay [8], over 100 µM. Also, the TGI in assay [1], in assay [2], in assay [3], in assay [4], in assay [5] and in assay [6] was over 100 µM throughout. The TGI in assay [7] and in assay [8] was over 100 µM each time.

`COc1cc(Nc2ncc3c(C)nc(-c4cccc(Oc5ccccc5)c4)n3n2)cc(OC)c1OC`: the GI50 was 6.32 µM in assay [1]; 10 µM in assay [2]; 5.95 µM in assay [3]; 3.21 µM in assay [4]; 4.94 µM in assay [5]; 6.36 µM in assay [6]. The GI50 is 7.07 µM in assay [7] and 6.51 µM in assay [8]. The TGI in assay [1] was over 25 µM; in assay [2], over 25 µM; in assay [3] it was over 25 µM; in assay [4], over 25 µM; in assay [5], over 17.9 µM; in assay [6] it was over 25 µM. Also, the TGI in assay [7] and in assay [8] was over 25 µM each time.

As for `Cc1cc(O)ccc1O`, the GI50 is over 100 µM in assay [1]; 13.8 µM in assay [2]; 26.2 µM in assay [3]; 45.4 µM in assay [4]; 3.58 µM in assay [5]; 23.5 µM in assay [6]. Besides, the GI50 in assay [7] was 15.3 µM; in assay [8], 32.8 µM. For the same compound, the TGI in assay [1] was over 100 µM; in assay [2], 48.1 µM; in assay [3], over 100 µM; in assay [4] it was over 100 µM; in assay [5], 18.8 µM; in assay [6] it was over 100 µM. In addition, the values for the TGI in assay [7] and in assay [8] were 29.6 µM and over 100 µM, respectively.

With `c1ccc2c(-c3nc4ccccc4[nH]3)cccc2c1`, the GI50 in assay [1] is 4.36 µM; in assay [2], 0.541 µM; in assay [3] it was 2.26 µM; in assay [4], 3.17 µM; in assay [5], 2.19 µM; in assay [6], 1.8 µM. The figures for the GI50 in assay [7] and in assay [8] were 3.77 µM and 3.72 µM, respectively. Moreover, the TGI in assay [1] is over 100 µM; in assay [2], 18 µM; in assay [3], over 100 µM; in assay [4], 15.8 µM; in assay [5] it was 5.54 µM; in assay [6], over 100 µM. Moreover, the TGI is 23.7 µM in assay [7] and 26.3 µM in assay [8].

As for `O=C1CSC(=S)N1Cc1cccnc1`, the GI50 is 23.9 µM in assay [1]; 3.75 µM in assay [2]; 2.22 µM in assay [3]; 18.4 µM in assay [4]; 2.22 µM in assay [5]; 24 µM in assay [6]. For the same compound, the GI50 is 6.33 µM in assay [7] and 23.5 µM in assay [8]. The TGI in assay [1] was 58.9 µM; in assay [2], over 100 µM; in assay [3] it was 5.21 µM; in assay [4] it was 48.7 µM; in assay [5] it was 5.83 µM; in assay [6] it was over 100 µM. Moreover, the TGI in assay [7] came out at 23.4 µM; in assay [8] it was 61.5 µM.
